According to patent US20210292340A1, “CELL NECROSIS INHIBITOR, PREPARATION METHOD THEREFOR AND USE THEREOF” (SHANGHAI INSTITUTE OF ORGANIC CHEMISTRY, CHINESE ACADEMY OF …, priority 2018, published 2021):
Like-named read-outs stand apart in the source and are kept apart here.

How the values were obtained:
Jurkat (FADD−/−) cells = assay: Inhibition of TNF-induced programmed Jurkat (FADD−/−) cell necrosis (Cell Titer-Glo); assay type: cell-based, human; details: 20 h, read-out: Cellular IC50 (M) Jurkat (FADD−/−)
Experimental: Two replicate wells were set for each concentration of each compound.
Jurkat (FADD^−/−) cells (human-derived peripheral blood leukemia T cell line, with FADD gene knocked out) were cultured in vitro. After growing to logarithmic growth phase, the cells were harvested, and centrifuged at 1000 rpm for 5 min. The supernatant was discarded, and the cells were resuspended in fresh medium and adjusted to a cell density of 5×10^5/mL. The cell suspension was added to the culture plate containing the drug (40 μL per well). In the treatment groups, 10 μL of TNF (tumor necrosis factor, final concentration 10 ng/mL) diluted with the cell culture medium was added to each well, and incubated for 20 h in a cell incubator (37° C., 5% CO2). Subsequently, 50 μL of Cell Titer-Glo solution was added to each well and incubated at room temperature for 10 min. Then, the luminescence was detected on BioTek plate reader to measure the intracellular ATP level. The effect of the test compounds in inhibiting TNF-induced cell necrosis was calculated from the full-activity well and background well (with the untreated DMSO control well as 100% cell viability), and the half inhibitory concentration (IC50) of the compound was calculated by Graphpad Prism statistical software.

human RIP1 = target: T1, human RIP1 (Homo sapiens, UniProt Q13546); assay: Inhibition of ADP-Glo RIP1 kinase activity; assay type: biochemical
T1 construct: made in house; host or cells: Sf-9 insect cells
T1 sequence (Q13546 1-671): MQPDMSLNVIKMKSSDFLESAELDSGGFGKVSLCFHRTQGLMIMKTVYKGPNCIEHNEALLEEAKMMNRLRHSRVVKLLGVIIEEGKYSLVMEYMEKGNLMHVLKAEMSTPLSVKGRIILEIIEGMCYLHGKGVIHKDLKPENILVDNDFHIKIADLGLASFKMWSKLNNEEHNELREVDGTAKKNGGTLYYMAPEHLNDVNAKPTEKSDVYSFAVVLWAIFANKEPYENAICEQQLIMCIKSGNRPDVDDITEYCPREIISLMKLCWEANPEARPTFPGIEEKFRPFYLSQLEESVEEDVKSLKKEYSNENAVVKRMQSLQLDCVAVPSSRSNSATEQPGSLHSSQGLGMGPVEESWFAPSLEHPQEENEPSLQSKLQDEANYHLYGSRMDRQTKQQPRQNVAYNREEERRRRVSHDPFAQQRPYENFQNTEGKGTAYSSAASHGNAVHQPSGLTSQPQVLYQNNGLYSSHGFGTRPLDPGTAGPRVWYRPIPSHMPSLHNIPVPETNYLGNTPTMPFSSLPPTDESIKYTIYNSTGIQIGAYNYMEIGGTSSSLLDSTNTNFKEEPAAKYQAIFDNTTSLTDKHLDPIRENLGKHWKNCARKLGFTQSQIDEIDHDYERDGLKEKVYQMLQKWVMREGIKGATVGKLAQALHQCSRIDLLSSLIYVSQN
Experimental: The human RIP1 gene was transduced into Sf-9 insect cells, and the RIP1 protein was purified by Ni+ affinity chromatography and then by S-200 molecular sieve to remove the protein multimers. The obtained RIP1 protein was stored at −70° C., and the activity of the RIP1 protein in catalyzing autophosphorylation was detected by the ADP-Glo™ Kinase Activity Assay Kit (Promega) and the inhibitory activity of the drug against the RIP1 kinase was determined.
100 nL of the compound was transferred to a 384-well assay plate. Two replicate wells were set for each concentration of each drug.
The RIP1 enzyme solution and ATP solution were formulated in an assay buffer (containing 50 mM HEPES pH 7.5, 30 mM MgCl2, 50 mM NaCl, 1 mM DTT, 0.02% CHAPS, and 0.5 mg/ml BSA). Then, 5 μL of the RIP1 enzyme solution (final concentration 50 nM) was added to the assay plate and incubated at room temperature for 1 h. 5 μL of the ATP solution (final concentration 10 μM) was added to the assay plate, and incubate at room temperature for 4 h. Then 5 μL of ADP-Glo reagent was added to the assay plate, and incubated at room temperature for 60 min. 5 μL of a kinase assay solution was added to the assay plate, and incubated at room temperature for 30 min. After readout on Envision, the inhibition rate in each well was calculated from the full-activity well and the background well, and the Ki of the compound was calculated by GraphPad Prism 7 software (using the Morrision equation to fit the curve and calculate the Ki).

[1] = Homo sapiens, Jurkat, TNF 10 ng/mL, intracellular ATP level

SMILES | IC50 (Jurkat (FADD−/−) cells; [1]) [M] | Ki (human RIP1) [nM] | IC50 (Jurkat (FADD−/−) cells; Homo sapiens, Jurkat) [M] | IC50 (Jurkat (FADD−/−) cells; TNF 10 ng/mL, intracellular ATP level) [M]
Cc1nc2cc3c(cc2[nH]1)OC[C@@H](NC(=O)c1cncn1Cc1ccccc1)C(=O)N3C (stereo in doubt) [RIP1-069] | 4.52e-09 | 31.3 |  | 
COc1ncnc2cc3c(cc12)N(C)C(=O)[C@@H](NC(=O)c1ncn(Cc2ccccc2)n1)CO3 [RIP1-145] | 4.61e-10 | 10.5 |  | 
CN1C(=O)[C@@H](NC(=O)c2nnc(Cc3ccccc3)[nH]2)COc2ccc3cnccc3c21 [RIP1-107] |  | 8.9 | 1.07e-09 | 
CN1C(=O)[C@@H](NC(=O)c2noc(Cc3ccccc3)n2)COc2cc3nccnc3cc21 [RIP1-132] | 4.57e-09 | 19.3 |  | 
CN1C(=O)[C@@H](NC(=O)c2nnc(Cc3ccccc3)o2)COc2cc3nccnc3cc21 [RIP1-134] | 9.03e-09 | 21.9 |  | 
CN1C(=O)[C@@H](NC(=O)c2cn(Cc3ccccc3)cn2)COc2cc3[nH]nc(Cl)c3cc21 [RIP1-031] | 2.9e-10 | 0.66 |  | 
CN1C(=O)[C@@H](NC(=O)c2ncn(Cc3ccccc3)n2)COc2cc3[nH]nc(Cl)c3cc21 [RIP1-032] |  | 20.3 | 2.4e-10 | 
CN1C(=O)[C@@H](NC(=O)c2noc(Cc3ccccc3)n2)COc2cc3occc3cc21 [RIP1-123] | 1.33e-09 | 23.2 |  | 
COc1ncnc2cc3c(cc12)N(C)C(=O)[C@@H](NC(=O)c1cn(Cc2ccccc2)cn1)CO3 [RIP1-147] | 1.69e-09 | 16.5 |  | 
CN1C(=O)[C@@H](NC(=O)c2nnn(Cc3ccccc3)n2)COc2cc3nccnc3cc21 [RIP1-131] | 1.29e-09 | 28.6 |  | 
CN1C(=O)[C@@H](NC(=O)c2cn(Cc3ccccc3)cn2)COc2ccc3ncccc3c21 [RIP1-099] | 6.92e-09 | 37.7 |  | 
CN1C(=O)[C@@H](NC(=O)c2cc(Cc3ccccc3)on2)COc2ccc3cnccc3c21 [RIP1-111] | 1.16e-09 | 18.5 |  | 
Cc1nc2cc3c(cc2[nH]1)OC[C@H](NC(=O)c1ncn(Cc2ccccc2)n1)C(=O)N3C [RIP1-068] | 7.62e-09 | 42.8 |  | 
Cc1nc2cc3c(cc2[nH]1)OC[C@H](NC(=O)c1cn(Cc2ccccc2)cn1)C(=O)N3C [RIP1-067] |  | 28.6 | 6.72e-09 | 
Cc1ccc(Cc2cc(C(=O)N[C@H]3COc4cc5nccnc5cc4N(C)C3=O)nn2C)cc1 [RIP1-133] | 5.3e-08 | 23.1 |  | 
CN1C(=O)[C@@H](NC(=O)c2cc(Cc3ccccc3)on2)COc2cc3[nH]ncc3cc21 [RIP1-021] | 5.8e-10 | 10.3 |  | 
CN1C(=O)[C@@H](NC(=O)c2cn(Cc3ccccc3)cn2)COc2cc3occc3cc21 [RIP1-120] | 2.56e-09 | 20.7 |  | 
CN1C(=O)[C@@H](NC(=O)c2cn(Cc3ccccc3)nn2)COc2ccc3ncccc3c21 [RIP1-100] | 3.27e-08 | 20.4 |  | 
CN1C(=O)[C@@H](NC(=O)c2ncn(Cc3ccccc3)n2)COc2ccc3cnccc3c21 [RIP1-108] | 1.64e-10 | 12.6 |  | 
CN1C(=O)[C@@H](NC(=O)c2noc(Cc3ccccc3)n2)COc2cc3[nH]nnc3cc21 [RIP1-140] | 1.37e-09 | 50.6 |  | 
CN1C(=O)[C@@H](NC(=O)c2cn(Cc3ccccc3)nn2)COc2cc3[nH]nnc3cc21 [RIP1-138] | 1.68e-08 | 19.8 |  | 
CN1C(=O)[C@@H](NC(=O)c2ncn(Cc3ccccc3)n2)COc2ccc3ncccc3c21 [RIP1-098] | 7.25e-10 | 20.9 |  | 
CN1C(=O)[C@@H](NC(=O)c2cc(Cc3ccccc3)on2)COc2cc3[nH]nnc3cc21 [RIP1-142] | 1.86e-09 | 19.1 |  | 
CN1C(=O)[C@@H](NC(=O)c2cn(Cc3ccccc3)nn2)COc2ccc3cnccc3c21 [RIP1-110] | 4.44e-09 | 14.6 |  | 

SMILES | IC50 (Jurkat (FADD−/−) cells; [1]) [M] | Ki (human RIP1) [nM] | IC50 (Jurkat (FADD−/−) cells; Homo sapiens, Jurkat) [M] | IC50 (Jurkat (FADD−/−) cells; TNF 10 ng/mL, intracellular ATP level) [M]
CN1C(=O)[C@@H](NC(=O)c2nnn(Cc3ccccc3)n2)COc2cc3[nH]nnc3cc21 [RIP1-139] | 7.81e-10 | 20.3 |  | 
CN1C(=O)[C@@H](NC(=O)c2cc(Cc3ccccc3)on2)COc2cc3occc3cc21 [RIP1-126] | 2.61e-09 | 25.6 |  | 
CN1C(=O)[C@@H](NC(=O)c2nnc(Cc3ccccc3)[nH]2)COc2cc3occc3cc21 [RIP1-127] | 3.28e-09 | 16.2 |  | 
CN1C(=O)[C@@H](NC(=O)c2cc(Cc3ccccc3)on2)COc2ccc3ncccc3c21 [RIP1-101] | 5.5e-09 | 17.2 |  | 
CN1C(=O)[C@@H](NC(=O)c2nnc(Cc3ccccc3)o2)COc2cc3occc3cc21 [RIP1-125] | 8.43e-10 | 19.6 |  | 
CN1C(=O)[C@@H](NC(=O)c2nnc(Cc3ccccc3)[nH]2)COc2ccc3ncccc3c21 [RIP1-097] | 1.2e-09 | 23.2 |  | 2.28e-09
CN1C(=O)[C@@H](NC(=O)c2cn(Cc3ccccc3)cn2)COc2cc3[nH]nnc3cc21 [RIP1-137] | 7.31e-09 | 13.3 |  | 
COc1ncnc2cc3c(cc12)N(C)C(=O)[C@@H](NC(=O)c1cc(Oc2ccccc2)ccn1)CO3 [RIP1-175] | 1.46e-09 |  |  | 
CN1C(=O)[C@@H](NC(=O)c2ncn(Cc3ccccc3)n2)COc2cc3[nH]ncc3cc21 [RIP1-025] | 2.86e-10 |  |  | 
CN1C(=O)[C@@H](NC(=O)c2n[nH]c(Cc3ccccc3)n2)COc2ccccc21 [GSK2982772, reference compound] | 9.7e-10 |  |  | 
CN1C(=O)[C@@H](NC(=O)c2n[nH]c(Cc3ccccc3)n2)CSc2cc3[nH]ccc3cc21 [RIP1-001] | 1.38e-09 |  |  | 
CN1C(=O)[C@@H](NC(=O)c2nnc(Cc3ccccc3)o2)CSc2cc3[nH]ccc3cc21 [RIP1-041] | 3.79e-10 |  |  | 
CN1C(=O)[C@@H](NC(=O)c2cn(Cc3ccccc3)cn2)CSc2ccc3cnccc3c21 [RIP1-104] | 7.4e-10 |  |  | 
CN1C(=O)[C@@H](NC(=O)c2ncn(Cc3ccccc3)n2)CSc2cc3[nH]nc(Cl)c3cc21 [RIP1-026] | 2.8e-10 |  |  | 
CN1C(=O)[C@@H](NC(=O)c2cc(Cc3ccccc3)on2)CSc2ccc3cnccc3c21 [RIP1-106] | 7.47e-10 |  |  | 
CN1C(=O)[C@@H](NC(=O)c2cnn(Cc3ccccc3)c2)CSc2cc3[nH]ccc3cc21 [RIP1-004] | 5.63e-08 |  |  | 
CN1C(=O)[C@@H](NC(=O)c2cc(Oc3ccccc3F)ccn2)COc2ccc3ncccc3c21 [RIP1-203] | 2.33e-09 |  |  | 
CN1C(=O)[C@@H](NC(=O)c2nnc(Cc3cccc(F)c3)[nH]2)COc2cc3ocnc3cc21 [RIP1-217] | 1.38e-09 |  |  | 
COc1ncnc2cc3c(cc12)N(C)C(=O)[C@@H](NC(=O)c1n[nH]c(Cc2cccc(F)c2)n1)CO3 [RIP1-159] | 8.7e-09 |  |  | 
CN1C(=O)[C@@H](NC(=O)c2cn(Cc3ccccc3)nn2)COc2cc3[nH]c(C(F)(F)F)nc3cc21 [RIP1-078] | 3.11e-08 |  |  | 
CN1C(=O)[C@@H](NC(=O)c2cnc(Cc3ccccc3)[nH]2)CSc2cc3c(ccn3C)cc21 [RIP1-050] | 4.92e-07 |  |  | 
CN1C(=O)[C@@H](NC(=O)c2ncn(Cc3ccccc3)n2)COc2cc3[nH]ccc3cc21 [RIP1-113] | 3.07e-10 |  |  | 
CN1C(=O)[C@@H](NC(=O)c2nnc(Cc3ccccc3)[nH]2)CSc2ccc3ncccc3c21 [RIP1-092] | 1.05e-09 |  |  | 
CN1C(=O)[C@@H](NC(=O)c2cn(Cc3ccccc3)nn2)CSc2cc3occc3cc21 [RIP1-040] | 3.6e-10 |  |  | 
